Experimental findings from patent US10000454B2, “Antidiabetic tricyclic compounds” (Merck Sharp & Dohme Corp., priority 2014, dated 2018) are described below.

In general, EC50 refers to the concentration needed to bring the measured effect to its halfway point.

The target in this test is Human GPR40 (Homo sapiens, UniProt O14842). Nature of the test: Inositol Phosphate Turnover (IP1) Assay. On the set-up: expressed in transfected cells; host or cells: HEK cells (stably expressing the aequorin reporter). The class given is cell-based. Conditions: HEK cells stably expressing human GPR40, CisBio IP-One kit. The protocol: Human and mouse GPR40 stable cell-lines were generated in CHO cells stably expressing NFAT BLA (Beta-lactamase). A human GPR40 stable cell-line was generated in HER cells stably expressing the aequorin expressing reporter. The expression plasmids were transfected using lipofectamine (Life Technologies) following manufacturer's instructions. Stable cell-lines were generated following drug selection.
Sequence of Human GPR40 (O14842 whole entry): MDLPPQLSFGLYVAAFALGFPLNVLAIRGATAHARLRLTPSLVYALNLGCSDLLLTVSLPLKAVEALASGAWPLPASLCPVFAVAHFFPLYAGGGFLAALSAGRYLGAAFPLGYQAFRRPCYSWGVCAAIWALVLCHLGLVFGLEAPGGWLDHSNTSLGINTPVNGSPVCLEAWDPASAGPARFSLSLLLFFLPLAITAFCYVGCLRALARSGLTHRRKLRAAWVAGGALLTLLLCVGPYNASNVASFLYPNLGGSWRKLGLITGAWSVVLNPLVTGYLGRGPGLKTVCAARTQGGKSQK
The assay is performed in 384-well format. HEK cells stably expressing human GPR40 are plated at 15,000 cells per well in growth medium (DMEM/10% fetal calf serum). Cell plates are then incubated 16 hours at 37 degrees in a 5% CO2 incubator.
Measurement of Inositol Phosphate Turnover (IP1) is performed using the CisBio IP-One kit (Part number 62IPAPEB). After the 16 hour incubation, the cells are washed with HEPES buffer and 10 ul of stimulation buffer (prepared as described in the kit) is added to each well. In a separate plate, compounds are diluted in DMSO (400-fold over the final concentration in the assay well) and 25 nl is acoustically transferred to the appropriate well in the assay cell plate. The plates are then incubated for 60 minutes at 37 degrees. 10 ul of detection buffer (also prepared as described in the IP-One kit) is added to each well and the plates are incubated for 60 minutes in the dark. The plates are then read in a Perkin Elmer EnVision or equivalent reader able to measure FRET. Fluorescent ratio of emission at 665 and 620 nm is then converted to IP1 concentration by back calculating from an IP1 standard curve prepared at the time of the assay.
In turn, `O=C(O)[C@H]1[C@@H]2Cc3cc(OCc4cc5c(cc4F)C(n4cccn4)CC5c4ccccc4C(F)(F)F)ncc3[C@@H]21` (single isomer, unassigned) [Example 57] had a half-maximal effective concentration (EC50) of 1.78 nM. Molecule `O=C(O)[C@H]1[C@@H]2Cc3cc(OCc4cc5c(cc4F)C(n4cccn4)CC5c4ccccc4C(F)(F)F)ncc3[C@@H]21` (single isomer, unassigned) [Example 58] registered an EC50 of 818 nM. Turning to `O=C(O)[C@H]1[C@@H]2Cc3cc(OCc4cc5c(cc4F)CCOC5c4ccccc4C(F)(F)F)ncc3[C@@H]21` (single isomer, unassigned) [Example 60], the midpoint of the response, the EC50, lay at 10.8 nM. The figure for `O=C(O)[C@H]1[C@@H]2Cc3cc(OCc4cccc5c4CCC5c4ccccc4C(F)(F)F)ncc3[C@@H]21` (single isomer, unassigned) [Example 64] is 154 nM. The figure for `O=C(O)[C@H]1[C@@H]2Cc3cc(OCc4cccc5c4CCC5c4ccccc4C(F)(F)F)ncc3[C@@H]21` (single isomer, unassigned) [Example 65] is 124 nM; for `CC1(C)CC(c2ccccc2C(F)(F)F)c2cc(COc3cc4c(cn3)[C@@]3(C)[C@@H](C4)[C@@H]3C(=O)O)c(F)cc21` (single isomer, unassigned) [Example 75] it is 157 nM; for `O=C(O)[C@H]1[C@@H]2Cc3cc(OCc4cc5c(cc4F)CCC5c4ccccc4C(F)(F)F)ncc3[C@@H]21` (stereo partly drawn) [Example 20, (5aR,6S,6aS)-3-((6-fluoro-3-(2-(trifluoromethyl)phenyl)-2,3-dihydro-1H-inden-5-yl)methoxy)-5,5a,6,6a-tetrahydrocyclopropa[4,5]cyclopenta[1,2-c]pyridine-6-carboxylic acid] it is 10.3 nM.

Take `CC1(C)CC(c2ccccc2C(F)(F)F)c2cc(COc3cc4c(cn3)[C@@H]3[C@@H](C(=O)O)[C@@H]3C4(F)F)c(F)cc21` (stereo partly drawn) [Example 24, (5aR,6R,6aR)-5,5-difluoro-3-((6-fluoro-1,1-dimethyl-3-(2-(trifluoromethyl)phenyl)-2,3-dihydro-1H-inden-5-yl)methoxy)-5,5a,6,6a-tetrahydrocyclopropa[4,5]cyclopenta[1,2-c]pyridine-6-carboxylic acid]: the concentration giving a half-maximal response (EC50) amounted to 53 nM. Compared with the last molecule, the EC50 is about 5.1-fold higher. Consider `CC1(C)OC(c2ccccc2C(F)(F)F)c2cc(COc3cc4c(cn3)[C@H]3[C@@H](C4)[C@@H]3C(=O)O)c(F)cc21` (stereo partly drawn) [Example 41, (5aR,6S,6aS)-3-((6-fluoro-1,1-dimethyl-3-(2-(trifluoromethyl)phenyl)-1,3-dihydroisobenzofuran-5-yl)methoxy)-5,5a,6,6a-tetrahydrocyclopropa[4,5]cyclopenta[1,2-c]pyridine-6-carboxylic acid], for which the EC50 amounted to 1.99 nM. Turning to `COc1ccc(F)c(C2CC(C)(C)c3cc(F)c(COc4cc5c(cn4)[C@H]4[C@@H](C5)[C@@H]4C(=O)O)cc32)c1` (stereo partly drawn) [Example 45, (5aR,6S,6aS)-3-((6-fluoro-3-(2-fluoro-5-methoxyhenyl)-1,1-dimethyl-2,3-dihydro-1H-inden-5-yl)methoxy)-5,5a,6,6a-tetrahydro-cyclopropa[4,5]cyclopenta [1,2-c]pyridine-6-carboxylic acid], the EC50 is 223 nM.

The molecule `CC1(C)CCN(c2ccccc2C(F)(F)F)c2c1ccc(COc1cc3c(cn1)[C@H]1[C@@H](C3)[C@@H]1C(=O)O)c2F` [Example 52, (5aR,6S,6aS)-3-((8-fluoro-4,4-dimethyl-1-(2-(trifluoromethyl)phenyl)-1,2,3,4-tetrahydroquinolin-7-yl)methoxy)-5,5a,6,6a-tetrahydrocyclopropa[4,5]cyclopenta[1,2-c]pyridine-6-carboxylic acid] registered an EC50 of 29.7 nM. This EC50 lies about 7.5-fold lower than the previous one. For `COc1ccc(F)c(N2CC(C)(C)c3cc(F)c(COc4cc5c(cn4)[C@H]4[C@@H](C5)[C@@H]4C(=O)O)cc32)c1` [Example 56, (5aR,6S,6aS)-3-((5-fluoro-1-(2-fluoro-5-methoxyphenyl)-3,3-dimethylindolin-6-yl)methoxy)-5,5a,6,6a-tetrahydrocyclopropa[4,5]cyclopenta[1,2-c]pyridine-6-carboxylic acid], the EC50 was determined as 43.8 nM.

`O=C(O)[C@H]1[C@@H]2Cc3cc(OCc4cc5c(cc4F)CCOC5c4ccccc4C(F)(F)F)ncc3[C@@H]21` (stereo partly drawn) [Example 59] gave an EC50 of 97.3 nM. This EC50 is about 2.2-fold higher than that of the molecule before. In turn, `O=C(O)[C@H]1[C@@H]2Cc3cc(OCc4cc5c(-c6ccccc6C(F)(F)F)cn(-c6ccccc6)c5cc4F)ncc3[C@@H]21` [Example 63, (5aR,6S,6aS)-3-((6-fluoro-1-phenyl-3-(2-(trifluoromethyl)phenyl)-1H-indol-5-yl)methoxy)-5,5a,6,6a-tetrahydrocyclopropa[4,5]cyclopenta[1,2-c]pyridine-6-carboxylic acid] displayed a concentration giving a half-maximal response (EC50) of 28.2 nM. Against the preceding molecule, the EC50 is about 3.5-fold lower. The figure for `CC1(C)CC(C)(C)c2cc(COc3cc4c(cn3)[C@H]3[C@@H](C4)[C@@H]3C(=O)O)c(F)cc21` [Example 76, (5aR,6S,6aS)-3-((6-fluoro-1,1,3,3-tetramethyl-2,3-dihydro-1H-inden-5-yl)methoxy)-5,5a,6,6a-tetrahydrocyclopropa[4,5]cyclopenta[1,2-c]pyridine-6-carboxylic acid] is 17.3 nM; for `O=C(O)[C@H]1[C@@H]2Cc3cc(OCc4cc5c(cnn5-c5ccccc5C(F)(F)F)cc4F)ncc3[C@@H]21` [Example 77, (5aR,6S,6aS)-3-((5-fluoro-1-(2-(trifluoromethyl)phenyl)-1H-indazol-6-yl)methoxy)-5,5a,6,6a-tetrahydrocyclopropa[4,5]cyclopenta[1,2-c]pyridine-6-carboxylic acid] it is 7.08 nM; for `O=C(O)[C@H]1[C@@H]2Cc3cc(OCc4cc5c(ccn5Cc5ccccc5C(F)(F)F)cc4F)ncc3[C@@H]21` [Example 78, (5aR,6S,6aS)-3-((5-fluoro-1-(2-(trifluoromethyl)benzyl)-1H-indol-6-yl)methoxy)-5,5a,6,6a-tetrahydrocyclopropa[4,5]cyclopenta[12-c]pyridine-6-carboxylic acid] it is 195 nM. The molecule `CN(C)[C@H]1C[C@H](c2ccccc2C(F)(F)F)c2cc(COc3cc4c(cn3)[C@H]3[C@@H](C4)[C@@H]3C(=O)O)c(F)cc21` [Example 79, (5aR,6S,6aS)-3-(((1S,3S)-1-(dimethylamino)-6-fluoro-3-(2-(trifluoromethyl)phenyl)-2,3-dihydro-1H-inden-5-yl)methoxy)-5,5a,6,6a-tetrahydrocyclopropa[4,5]cyclopenta[1,2-c]pyridine-6-carboxylic acid, or (5aR,6S,6aS)-3-(((1R,3R)-1-(dimethylamino)-6-fluoro-3-(2-(trifluoromethyl)phenyl)-2,3-dihydro-1H-inden-5-yl)methoxy)-5,5a,6,6a-tetrahydrocyclopropa[4,5]cyclopenta[1,2-c]pyridine-6-carboxylic acid] returned an EC50 of 15.4 nM.
